We go through 2 compounds from article PMC11638965, “Leveraging Dual-Ligase Recruitment to Enhance Protein Degradation via a Heterotrivalent Proteolysis Targeting Chimera” (Journal of the American Chemical Society, 2024).

“Also recorded” adds a separate entry of the source. Where two headings read alike, the source gives them in different places.

Test [1] deals with BRD4 (Homo sapiens, UniProt O60885). Put plainly: Live cell kinetic HiBiT degradation assay, HiBiT-BRD4 HEK293 cells (parental, CRBN KO, VHL KO). The test is classed as cell-based. Particulars: parental, CRBN KO and VHL KO HiBiT-BRD4 HEK293 cells (Figure S5); listed as 93. How it is done: HEK293 HiBiT-BRD2 (LgBiT stable), HEK293 HiBiT-BRD3 (LgBiT stable), and HEK293 HiBiT-BRD4 (LgBiT stable) were created using CRISPR/Cas9 to insert at HiBiT tag at the N-terminal genomic loci of BRD2, BRD3, or BRD4 in a cell line stably expressing LgBiT protein as described previously.[23]
For kinetic degradation experiments, HEK293 HiBiT-BRD2, 3, or 4 (LgBiT stable) cells and HEK293 HiBiT-BRD4 (LgBiT) CRBN KO and VHL KO cells were plated at 20,000 cells/well in DMEM +10% FBS in white 96-well tissue culture plates and allowed to adhere overnight. The next day, media was removed and 90 μL of prewarmed CO2-independent medium (Gibco) containing Endurazine (Promega) at a 1:100 dilution from stock was added. Plates were incubated at 37 °C for 3 h to allow luminescence to equilibrate. A threefold dilution series of each PROTAC at 10x the desired final concentration was prepared (with the amount of DMSO in each treatment condition kept constant). After luminescence equilibration, a preread luminescence measurement was taken (prior to compound addition) to allow for baseline normalization to account for possible plating differences. Cells were then treated with 10 μL of the prepared PROTAC dilution series (in triplicate or quadruplicate). Treated plates were placed in a GloMax Discover luminometer (Promega) prewarmed to 37 °C and luminescence measurements were obtained every 7 min for 24 h. Kinetic degradation plots were obtained by first normalizing time course luminescence readings in each well to the preread measurement, then to the average value of the DMSO only control at each time point. Data was analyzed using GraphPad Prism (version 8) and excel. Dmax values were identified as the lowest luminescence reading in each well. Rate constant values were calculated using a one phase exponential decay Y = (Y0-Plateau) e(K*^X) + Plateau using Prism (Y0 constrained to 1). Dmax 50 values were calculated by plotting Dmax as a function of concentration, then fitting plots using the following equation: [drawing 1] to determine IC50.
HiBiT-BRD4 (LgBiT stable) HEK293 cells (Promega) were used to generate both VHL KO HiBiT-BRD4 (LgBiT stable) and CRBN KO HiBiT-BRD4 (LgBiT stable) cell lines. For VHL, gRNAs targeting exon 1 ([…]) and exon 2 ([…]) and for CRBN, gRNAs targeting exon 3 ([…]) and exon 6 ([…]) were purchased from IDT DNA (Table 5). For each gRNA, tracrRNA/crRNA duplexes were formed by combining 10 μL of 100 μM Alt-R […] (IDT), 100 μM Alt-R crRNA (IDT) and heating at 95C for 5 min, then were allowed to cool to room temp for 20 min. RNPs were then formed by combining 75 pmol Cas9 (IDT) with 2.4 μL total of prepared tracrRNA/crRNA complex (1.2 μL for each gRNA targeting each exon). Cells were then trypsinized and resuspended at 10,000,000 cells/mL in 1 mL of Mirus Ingenio electroporation solution. Three μL of 100 μM electroporation enhancer (Mirus) was added, along with 3 μL of RNP solution. Cells were electroporated in 2 mm cuvettes using a BioRad system (190 V, 950 μF, infinite resistance) and were then plated in a T75 flask in full growth medium to allow for recovery. After recovery from electroporation, knockout pools were sorted for single cells in 96-well tissue culture treated plates. Clonal populations which expanded from single cells were then screened for loss of function of VHL by treating with MZ1, or loss of function of CRBN by treating with dBET6, using a HiBiT-BRD4 luminescent readout assay. Genomic DNA isolated from candidate clones was then PCR-amplified (Table of primers below), Gibson-assembled into a pF1A plasmid backbone, transformed into E. coli., and then Sanger sequenced to confirm presence of indels in the targeted exons. […] VHL exon 3 carried a 19 bp deletion on one allele, and a 1 bp insertion on the other allele, both occurring after the premature stop codon in exon 1.

Test [2] relates to RKO WT cells. Put plainly: cells. The test is classed as cell-based, human. On the procedure: (§1) RKO WT, VHL KO, CRBN KO and CRBN/VHL dKO cells were cultured in Dulbecco’s modified Eagle’s medium supplemented with 10% FCS and 1% penicillin–streptomycin. RKO CRBN KO and VHL KO were generated previously.[45] RKO CRBN/VHL dKO cells were generated by transiently expressing pSpCas9(BB)-2A-GFP (PX458) (Addgene 48138) loaded with a short guide RNA (sgRNA) targeting VHL (Fwd: […], Rev: […]) in RKO CRBN KO cells. Clones were single cell seeded and checked for VHL and CRBN double deletion via Western blot or PCR on genomic DNA (gDNA).
Cells were seeded in 96-well plates at a cell density of 3750 cells per well and treated for 3 days with DMSO or drug at ten √10 serial diluted concentrations. […] Cell viability was assessed using the CellTiter-Glo assay (CellTiter-Glo Luminescent Cell Viability Assay, Promega G7573) according to manufacturer instructions. Luminescence signal was measured on a Multilabel Plate Reader Platform Victor X3 model 2030 (PerkinElmer). Survival curves and EC50 values were determined using GraphPad Prism v.10.0.3 by fitting a nonlinear regression to the log10-transformed drug concentration and the relative viability after normalization of each data point to the mean luminescence of the lowest drug concentration.

Test [3] deals with RKO CRBN/VHL dKO cells. Put plainly: Cell viability assay (CellTiter-Glo). The test is classed as cell-based, human. On the procedure:
as §1
(§2) Cells were seeded in 96-well plates at a cell density of 3750 cells per well and treated for 3 days with DMSO or drug at ten √10 serial diluted concentrations. Starting concentration for all drugs was 10 μM, and each treatment was performed in biological triplicates. Cell viability was assessed using the CellTiter-Glo assay (CellTiter-Glo Luminescent Cell Viability Assay, Promega G7573) according to manufacturer instructions. Luminescence signal was measured on a Multilabel Plate Reader Platform Victor X3 model 2030 (PerkinElmer). Survival curves and EC50 values were determined using GraphPad Prism v.10.0.3 by fitting a nonlinear regression to the log10-transformed drug concentration and the relative viability after normalization of each data point to the mean luminescence of the lowest drug concentration.
(In ATP-based viability assays light output follows the ATP content of the culture.)

Test [4] has as its system RKO VHL KO cells. In words: Cell viability assay (CellTiter-Glo). The test is classed as cell-based, human. On the procedure:
as §1, §2

Test [5] concerns RKO CRBN KO cells. Put plainly: Cell viability assay (CellTiter-Glo). The test is classed as cell-based, human. Particulars: 500 pM to 10 μM, 3 days (Figure 10, Table S6).
Test [6] relates to RKO CRBN KO cells. In words: Cell viability assay (CellTiter-Glo). The test is classed as cell-based, human. Particulars: Homo sapiens, 72 h, 316 pM to 10 μM, 3 days, n = 6 (Figure 3C, Table S1). On the procedure: as §1, §2
Test [7] deals with K562 cells. In words: Cell viability assay (CellTiter-Glo). The test is classed as cell-based, human. Particulars: Homo sapiens; WT K562, 5.12 pM to 10 uM, n = 3 (Table S4). On the procedure:
as §2, with “[…],” for “3750 cells per well and treated for 3 days with DMSO or drug at ten √10 serial diluted concentrations. Starting concentration for all drugs was 10 μM,”

In test [8] the test system is KBM7 cells. Put plainly: Cell viability assay (CellTiter-Glo). The test is classed as cell-based, human. Particulars: Homo sapiens, KBM-7; WT KBM7, 5.12 pM to 10 uM, n = 3 (Table S4). How it is done:
as §2, with “[…],” for “3750 cells per well and treated for 3 days with DMSO or drug at ten √10 serial diluted concentrations. Starting concentration for all drugs was 10 μM,”

[9] abbreviates: Homo sapiens, 72 h, 500 pM to 10 μM, 3 days (Figure 10, Table S6), read-out: EC50 RKO WT.

For the compound `Cc1ncsc1-c1ccc([C@H](C)NC(=O)[C@@H]2C[C@@H](O)CN2C(=O)[C@@H](NC(=O)COCC(C)(COCCOCCOCCNc2cc3c(cc2F)C(=O)N(C2CCC(=O)N(C)C2=O)C3=O)COCCOCCOCCOC(=O)C[C@@H]2N=C(c3ccc(Cl)cc3)c3c(sc(C)c3C)-n3c(C)nnc32)C(C)(C)C)cc1` (mixture of isomers) [neg-AB3067 (93), (17S)-11-((2-(2-(2-((6-fluoro-2-(1-methyl-2,6-dioxopiperidin-3-yl)-1,3-dioxoisoindolin-5-yl)amino)ethoxy)ethoxy)ethoxy)methyl)-17-((2S,4R)-4-hydroxy-2-(((S)-1-(4-(4-methylthiazol-5-yl)phenyl)ethyl)carbamoyl)pyrrolidine-1-carbonyl)-11,18,18-trimethyl-15-oxo-3,6,9,13-tetraoxa-16-azanonadecyl 2-((S)-4-(4-chlorophenyl)-2,3,9-trimethyl-6H-thieno[3,2-f][1,2,4]triazolo[4,3-a][1,4]diazepin-6-yl)acetate], the “on-target BRD4 degradation activity (in words)” value in test [1] was “inactive in VHL KO cells; also recorded: decreased relative to 27 in parental and CRBN KO cells”. Also, the EC50 in test [2] (500 pM to 10 μM, 3 days (Figure 10, Table S6), listed as 93, read-out: EC50 RKO WT) was 107 nM; in test [2] (setting [9]), about 106 nM; in test [3] (500 pM to 10 μM, 3 days (Figure 10, Table S6), read-out: EC50 RKO CRBN/VHL dKO), about 400 nM; in test [3] (Homo sapiens, 72 h, 500 pM to 10 μM, 3 days (Figure 10, Table S6), read-out: EC50 RKO CRBN/VHL dKO), 420 nM; in test [4] (500 pM to 10 μM, 3 days (Figure 10, Table S6)), about 400 nM; in test [4] (Homo sapiens, 72 h, 500 pM to 10 μM, 3 days (Figure 10, Table S6)), 391 nM. Besides, the EC50 in test [5] (listed as 93) was 105 nM; in test [5] (Homo sapiens, 72 h) it was about 106 nM.

With `Cc1ncsc1-c1ccc(CNC(=O)[C@@H]2C[C@@H](O)CN2C(=O)[C@@H](NC(=O)COCCOCCOCCNC(=O)C[C@@H]2N=C(c3ccc(Cl)cc3)c3c(sc(C)c3C)-n3c(C)nnc32)C(C)(C)C)cc1` [MZ1, reference compound], the EC50 in test [2] (Homo sapiens, 72 h, 316 pM to 10 μM, 3 days, n = 6 (Figure 3C, Table S1), read-out: EC50 RKO WT) was 212 nM; in test [2] (setting [9]) it was 160 nM; in test [2] (Homo sapiens, RKO WT, 316 pM to 10 μM, n = 6, combination: dBET6 and MZ1 each from 5 μM (Table S7), read-out: EC50 RKO), 152 nM; in test [2] (Homo sapiens, WT RKO, 316 pM to 10 μM, n = 3 (Table S4), read-out: EC50 RKO) it was 188 nM; in test [6], 181 nM; in test [3] (Homo sapiens, Figure 10 experiment, read-out: EC50 RKO VHL/CRBN dKO), over 5000 nM. Further, the EC50 in test [3] (Homo sapiens, both VHL and CRBN knocked out (Figure 3C), read-out: EC50 RKO CRBN/VHL dKO) is over 10000 nM; in test [4] (Homo sapiens, 72 h, 316 pM to 10 μM, 3 days, n = 6 (Figure 3C, Table S1)) it was over 10000 nM; in test [4] (Homo sapiens, Figure 10 experiment) it was over 5000 nM; in test [7] it was 216 nM; in test [8] it was 66.2 nM; in test [5] (Homo sapiens, 72 h) it was 136 nM.
